{"source": "ChEMBL document CHEMBL2429759", "about": "“Anti-tumor activity evaluation of novel chrysin-organogermanium(IV) complex in MCF-7 cells” (Bioorg Med Chem Lett, 2013)", "key": {"[1]": {"test": "Growth inhibition of human MCF10A cells at 30 ug/ml by MTT assay", "format": "cell-based, MCF-10A", "details": "MCF10A cells, read-out: GI"}, "[2]": {"test": "Growth inhibition of human MCF10A cells at 20 ug/ml by MTT assay", "format": "cell-based, MCF-10A", "details": "MCF10A cells, read-out: GI"}, "[3]": {"test": "Growth inhibition of human MCF10A cells at 5 ug/ml by MTT assay", "format": "cell-based, MCF-10A", "details": "MCF10A cells, read-out: GI"}, "[4]": {"test": "Growth inhibition of human MCF10A cells at 10 ug/ml by MTT assay", "format": "cell-based, MCF-10A", "details": "MCF10A cells, read-out: GI"}, "MCF7 [5]": {"system": "MCF7", "test": "Growth inhibition of human MCF7 cells at 20 ug/ml by MTT assay", "format": "functional", "details": "read-out: GI"}, "MCF7 [6]": {"system": "MCF7", "test": "Growth inhibition of human MCF7 cells at 30 ug/ml by MTT assay", "format": "functional", "details": "read-out: GI"}, "MCF7 [7]": {"system": "MCF7", "test": "Growth inhibition of human MCF7 cells at 10 ug/ml by MTT assay", "format": "functional", "details": "read-out: GI"}, "COLO 205 [8]": {"system": "COLO 205", "test": "Growth inhibition of human COLO205 cells at 30 ug/ml by MTT assay", "format": "functional", "details": "read-out: GI"}, "MCF7 [9]": {"system": "MCF7", "test": "Growth inhibition of human MCF7 cells at 5 ug/ml by MTT assay", "format": "functional", "details": "read-out: GI"}, "COLO 205 [10]": {"system": "COLO 205", "test": "Growth inhibition of human COLO205 cells at 10 ug/ml by MTT assay", "format": "functional", "details": "read-out: GI"}, "COLO 205 [11]": {"system": "COLO 205", "test": "Growth inhibition of human COLO205 cells at 20 ug/ml by MTT assay", "format": "functional", "details": "read-out: GI"}, "COLO 205 [12]": {"system": "COLO 205", "test": "Growth inhibition of human COLO205 cells at 5 ug/ml by MTT assay", "format": "functional", "details": "read-out: GI"}, "HepG2 [13]": {"system": "HepG2", "test": "Growth inhibition of human HepG2 cells at 20 ug/ml by MTT assay", "format": "functional", "details": "read-out: GI"}, "HepG2 [14]": {"system": "HepG2", "test": "Growth inhibition of human HepG2 cells at 30 ug/ml by MTT assay", "format": "functional", "details": "read-out: GI"}, "HepG2 [15]": {"system": "HepG2", "test": "Growth inhibition of human HepG2 cells at 5 ug/ml by MTT assay", "format": "functional", "details": "read-out: GI"}, "HepG2 [16]": {"system": "HepG2", "test": "Growth inhibition of human HepG2 cells at 10 ug/ml by MTT assay", "format": "functional", "details": "read-out: GI"}, "MCF7 [17]": {"system": "MCF7", "test": "Growth inhibition of human MCF7 cells by MTT assay", "format": "functional, cell-based"}, "COLO 205 [18]": {"system": "COLO 205", "test": "Growth inhibition of human COLO205 cells by MTT assay", "format": "functional, cell-based"}, "HepG2 [19]": {"system": "HepG2", "test": "Growth inhibition of human HepG2 cells by MTT assay", "format": "functional, cell-based"}}, "data": [{"smiles": "O=c1cc(-c2ccccc2)oc2cc(O)cc(O)c12", "note": "[CHRYSIN]", "values": [{"measurement": "inhibition at 30 ug/ml", "setting": "[1]", "value": 29.6, "unit": "%"}, {"measurement": "inhibition at 20 ug/ml", "setting": "[2]", "value": 21.4, "unit": "%"}, {"measurement": "inhibition at 5 ug/ml", "setting": "[3]", "value": 5.92, "unit": "%"}, {"measurement": "inhibition at 10 ug/ml", "setting": "[4]", "value": 14.5, "unit": "%"}, {"measurement": "inhibition of growth at 20 µg/mL", "setting": "MCF7 [5]", "value": 86.5, "unit": "%"}, {"measurement": "inhibition of growth at 30 µg/mL", "setting": "MCF7 [6]", "value": 97, "unit": "%"}, {"measurement": "inhibition of growth at 10 µg/mL", "setting": "MCF7 [7]", "value": 45.2, "unit": "%"}, {"measurement": "inhibition of growth at 30 µg/mL", "setting": "COLO 205 [8]", "value": 65.2, "unit": "%"}, {"measurement": "inhibition of growth at 5 µg/mL", "setting": "MCF7 [9]", "value": 14.6, "unit": "%"}, {"measurement": "inhibition of growth at 10 µg/mL", "setting": "COLO 205 [10]", "value": 24.9, "unit": "%"}, {"measurement": "inhibition of growth at 20 µg/mL", "setting": "COLO 205 [11]", "value": 56.5, "unit": "%"}, {"measurement": "inhibition of growth at 5 µg/mL", "setting": "COLO 205 [12]", "value": 15.2, "unit": "%"}, {"measurement": "inhibition of growth at 20 µg/mL", "setting": "HepG2 [13]", "value": 55.3, "unit": "%"}, {"measurement": "inhibition of growth at 30 µg/mL", "setting": "HepG2 [14]", "value": 65.1, "unit": "%"}, {"measurement": "inhibition of growth at 5 µg/mL", "setting": "HepG2 [15]", "value": 14.8, "unit": "%"}, {"measurement": "inhibition of growth at 10 µg/mL", "setting": "HepG2 [16]", "value": 29.2, "unit": "%"}, {"measurement": "growth inhibition (GI)", "setting": "MCF7 [17]", "value": "Dose-dependent effect"}, {"measurement": "growth inhibition (GI)", "setting": "COLO 205 [18]", "value": "Dose-dependent effect"}, {"measurement": "growth inhibition (GI)", "setting": "HepG2 [19]", "value": "Dose-dependent effect"}]}]}
